Measurements taken from ChEMBL document CHEMBL1201862, “PubChem BioAssay data set” (2004).
Calls of active or inactive are those of the source.

Key:
[1] = target: FAD-linked sulfhydryl oxidase ALR (Homo sapiens, UniProt P55789); assay: inhibitors of human ALR sulfhydryl oxidase, dose response, biochemical, H2O2 detection, luminescence, cherry-pick (AID 493248)
[2] = target: T1, Rac GTPase-activating protein 1 (Homo sapiens, UniProt Q9H0H5); assay: MgcRacGAP GTPase-activating activity inhibitors, confirmation, biochemical, ADP Hunter fluorescence, primary and confirmatory (AID 624330); type: functional
T1 sequence (Q9H0H5 whole entry): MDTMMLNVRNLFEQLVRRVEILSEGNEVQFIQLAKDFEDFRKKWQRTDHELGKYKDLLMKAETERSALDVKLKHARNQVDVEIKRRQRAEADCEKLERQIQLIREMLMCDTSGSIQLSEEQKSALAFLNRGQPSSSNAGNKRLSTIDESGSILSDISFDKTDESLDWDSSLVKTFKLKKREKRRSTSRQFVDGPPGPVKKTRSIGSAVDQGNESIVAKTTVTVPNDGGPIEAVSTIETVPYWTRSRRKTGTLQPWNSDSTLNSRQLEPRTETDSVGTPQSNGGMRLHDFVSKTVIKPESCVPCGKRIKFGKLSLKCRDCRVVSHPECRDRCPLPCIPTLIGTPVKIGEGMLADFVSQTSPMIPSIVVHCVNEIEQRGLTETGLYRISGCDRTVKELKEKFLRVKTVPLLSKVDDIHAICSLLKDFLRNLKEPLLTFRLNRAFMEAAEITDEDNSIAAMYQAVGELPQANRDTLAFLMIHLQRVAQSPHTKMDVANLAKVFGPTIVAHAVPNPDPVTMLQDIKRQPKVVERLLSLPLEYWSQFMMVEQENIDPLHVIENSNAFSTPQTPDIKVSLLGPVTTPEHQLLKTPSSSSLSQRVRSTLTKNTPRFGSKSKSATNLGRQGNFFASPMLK

[3] = Shn3 3'UTR reporter inhibitors, dose response, cell-based, Clone20 osteoblasts, firefly luciferase, cherry-picked (AID 624132); type: functional;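 also: firefly luciferase luminescence from reporter carrying the Shn3 3'UTR in osteoblasts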
[4] = HepG2 cell cytotoxicity, dose response, cytotoxicity control for Shn3 inhibitor project, CellTiter-Glo, cherry-picked (AID 624134); type: functional, cell-based
[5] = control 3'UTR Renilla luciferase suppression, dose response, counter-screen for Shn3 inhibitor project, cell-based, Clone20-Shn3RL, cherry-picked (AID 624133); type: functional
[6] = inhibitors of intracellular T. cruzi replication, confirmation, NIH3T3 host cells, beta-gal luminescence (AID 2044); type: functional, cell-based;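 also: intracellular parasites grown in NIH/3T3 mouse fibroblasts as host cells; luminescent beta-galactosidase reporter signal from transgenic T. cruzi replicating inside host cells; inhibitors lower the luminescence signal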
[7] = cytotoxicity toward NIH3T3 fibroblasts, dose response, counter-screen, cell-based, ATP luminescence, mouse fibroblasts (AID 2010); type: functional;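 also: cells exposed to compound for about 90 hours before reading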
Fatty acid synthase [8] = target: T2, Fatty acid synthase (Homo sapiens, UniProt P49327); assay: FAS thioesterase domain inhibitors, dose response, biochemical, endpoint fluorescence intensity, uHTS hits (AID 624327); type: functional;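 also: fluorescence from hydrolysis of an O-methyl fluorescein acyl ester substrate by the enzyme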
Fatty acid synthase [9] = target: T2, Fatty acid synthase; assay: FAS thioesterase domain inhibitors, dose response, biochemical, kinetic fluorescence intensity (AID 624326); type: functional;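 also: rate of fluorescence rise from hydrolysis of a fluorogenic O-methyl fluorescein ester substrate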
cells [10] = type: functional, cell-based
cells [11] = type: functional, cell-based; remark: listed apart in the source
[12] = target: T3, Zinc finger protein mex-5 (Caenorhabditis elegans, UniProt Q9XUB2); assay: MEX-5/TCR-2 RNA interaction inhibitors, dose response, biochemical, C. elegans, fluorescence polarization (AID 1960)
T3 sequence (Q9XUB2 whole entry): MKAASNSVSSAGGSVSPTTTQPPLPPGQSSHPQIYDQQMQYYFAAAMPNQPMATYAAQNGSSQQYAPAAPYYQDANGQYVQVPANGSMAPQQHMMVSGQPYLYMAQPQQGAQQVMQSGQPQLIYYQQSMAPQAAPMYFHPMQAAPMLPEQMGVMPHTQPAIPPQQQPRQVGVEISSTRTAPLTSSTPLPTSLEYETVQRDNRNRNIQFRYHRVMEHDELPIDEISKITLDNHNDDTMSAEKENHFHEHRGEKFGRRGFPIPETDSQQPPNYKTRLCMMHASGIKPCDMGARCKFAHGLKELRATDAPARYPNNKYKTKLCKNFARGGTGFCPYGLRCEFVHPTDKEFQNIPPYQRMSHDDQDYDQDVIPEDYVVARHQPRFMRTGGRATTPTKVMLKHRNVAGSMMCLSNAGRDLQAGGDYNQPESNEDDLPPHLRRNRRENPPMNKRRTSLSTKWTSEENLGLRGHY

[13] = target: T4, RNA-binding protein pos-1 (Caenorhabditis elegans, UniProt G5EF15); assay: inhibitors of POS-1/mex-3 RNA binding, dose response, biochemical, fluorescence polarization (AID 1964);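 also: purified POS-1 fused to maltose binding protein made in E. coli; potency of compounds blocking POS-1 binding to fluorescent RNA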
T4 sequence (G5EF15 whole entry): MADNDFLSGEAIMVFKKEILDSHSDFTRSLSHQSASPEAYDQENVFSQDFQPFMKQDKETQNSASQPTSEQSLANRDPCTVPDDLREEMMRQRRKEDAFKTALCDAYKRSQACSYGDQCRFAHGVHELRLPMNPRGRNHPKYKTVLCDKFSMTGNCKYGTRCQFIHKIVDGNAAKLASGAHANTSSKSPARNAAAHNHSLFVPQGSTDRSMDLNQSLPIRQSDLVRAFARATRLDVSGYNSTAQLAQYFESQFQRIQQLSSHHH

[14] = target: T5, Calpain-2 catalytic subunit (Sus scrofa, UniProt P43367); assay: pig calpain II inhibitor potency, dose response, biochemical, fluorogenic peptide substrate (AID 1420); type: functional
T5 sequence (P43367 whole entry): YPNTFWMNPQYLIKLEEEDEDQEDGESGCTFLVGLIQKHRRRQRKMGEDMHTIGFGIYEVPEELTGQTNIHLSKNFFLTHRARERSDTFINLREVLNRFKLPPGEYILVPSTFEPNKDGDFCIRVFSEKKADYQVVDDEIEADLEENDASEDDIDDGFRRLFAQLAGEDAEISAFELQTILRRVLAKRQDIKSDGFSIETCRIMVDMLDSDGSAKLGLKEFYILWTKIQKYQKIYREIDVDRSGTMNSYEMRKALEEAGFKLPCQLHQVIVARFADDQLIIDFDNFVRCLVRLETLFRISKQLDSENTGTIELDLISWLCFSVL

T2 sequence (P49327 whole entry, the tested form may be a part): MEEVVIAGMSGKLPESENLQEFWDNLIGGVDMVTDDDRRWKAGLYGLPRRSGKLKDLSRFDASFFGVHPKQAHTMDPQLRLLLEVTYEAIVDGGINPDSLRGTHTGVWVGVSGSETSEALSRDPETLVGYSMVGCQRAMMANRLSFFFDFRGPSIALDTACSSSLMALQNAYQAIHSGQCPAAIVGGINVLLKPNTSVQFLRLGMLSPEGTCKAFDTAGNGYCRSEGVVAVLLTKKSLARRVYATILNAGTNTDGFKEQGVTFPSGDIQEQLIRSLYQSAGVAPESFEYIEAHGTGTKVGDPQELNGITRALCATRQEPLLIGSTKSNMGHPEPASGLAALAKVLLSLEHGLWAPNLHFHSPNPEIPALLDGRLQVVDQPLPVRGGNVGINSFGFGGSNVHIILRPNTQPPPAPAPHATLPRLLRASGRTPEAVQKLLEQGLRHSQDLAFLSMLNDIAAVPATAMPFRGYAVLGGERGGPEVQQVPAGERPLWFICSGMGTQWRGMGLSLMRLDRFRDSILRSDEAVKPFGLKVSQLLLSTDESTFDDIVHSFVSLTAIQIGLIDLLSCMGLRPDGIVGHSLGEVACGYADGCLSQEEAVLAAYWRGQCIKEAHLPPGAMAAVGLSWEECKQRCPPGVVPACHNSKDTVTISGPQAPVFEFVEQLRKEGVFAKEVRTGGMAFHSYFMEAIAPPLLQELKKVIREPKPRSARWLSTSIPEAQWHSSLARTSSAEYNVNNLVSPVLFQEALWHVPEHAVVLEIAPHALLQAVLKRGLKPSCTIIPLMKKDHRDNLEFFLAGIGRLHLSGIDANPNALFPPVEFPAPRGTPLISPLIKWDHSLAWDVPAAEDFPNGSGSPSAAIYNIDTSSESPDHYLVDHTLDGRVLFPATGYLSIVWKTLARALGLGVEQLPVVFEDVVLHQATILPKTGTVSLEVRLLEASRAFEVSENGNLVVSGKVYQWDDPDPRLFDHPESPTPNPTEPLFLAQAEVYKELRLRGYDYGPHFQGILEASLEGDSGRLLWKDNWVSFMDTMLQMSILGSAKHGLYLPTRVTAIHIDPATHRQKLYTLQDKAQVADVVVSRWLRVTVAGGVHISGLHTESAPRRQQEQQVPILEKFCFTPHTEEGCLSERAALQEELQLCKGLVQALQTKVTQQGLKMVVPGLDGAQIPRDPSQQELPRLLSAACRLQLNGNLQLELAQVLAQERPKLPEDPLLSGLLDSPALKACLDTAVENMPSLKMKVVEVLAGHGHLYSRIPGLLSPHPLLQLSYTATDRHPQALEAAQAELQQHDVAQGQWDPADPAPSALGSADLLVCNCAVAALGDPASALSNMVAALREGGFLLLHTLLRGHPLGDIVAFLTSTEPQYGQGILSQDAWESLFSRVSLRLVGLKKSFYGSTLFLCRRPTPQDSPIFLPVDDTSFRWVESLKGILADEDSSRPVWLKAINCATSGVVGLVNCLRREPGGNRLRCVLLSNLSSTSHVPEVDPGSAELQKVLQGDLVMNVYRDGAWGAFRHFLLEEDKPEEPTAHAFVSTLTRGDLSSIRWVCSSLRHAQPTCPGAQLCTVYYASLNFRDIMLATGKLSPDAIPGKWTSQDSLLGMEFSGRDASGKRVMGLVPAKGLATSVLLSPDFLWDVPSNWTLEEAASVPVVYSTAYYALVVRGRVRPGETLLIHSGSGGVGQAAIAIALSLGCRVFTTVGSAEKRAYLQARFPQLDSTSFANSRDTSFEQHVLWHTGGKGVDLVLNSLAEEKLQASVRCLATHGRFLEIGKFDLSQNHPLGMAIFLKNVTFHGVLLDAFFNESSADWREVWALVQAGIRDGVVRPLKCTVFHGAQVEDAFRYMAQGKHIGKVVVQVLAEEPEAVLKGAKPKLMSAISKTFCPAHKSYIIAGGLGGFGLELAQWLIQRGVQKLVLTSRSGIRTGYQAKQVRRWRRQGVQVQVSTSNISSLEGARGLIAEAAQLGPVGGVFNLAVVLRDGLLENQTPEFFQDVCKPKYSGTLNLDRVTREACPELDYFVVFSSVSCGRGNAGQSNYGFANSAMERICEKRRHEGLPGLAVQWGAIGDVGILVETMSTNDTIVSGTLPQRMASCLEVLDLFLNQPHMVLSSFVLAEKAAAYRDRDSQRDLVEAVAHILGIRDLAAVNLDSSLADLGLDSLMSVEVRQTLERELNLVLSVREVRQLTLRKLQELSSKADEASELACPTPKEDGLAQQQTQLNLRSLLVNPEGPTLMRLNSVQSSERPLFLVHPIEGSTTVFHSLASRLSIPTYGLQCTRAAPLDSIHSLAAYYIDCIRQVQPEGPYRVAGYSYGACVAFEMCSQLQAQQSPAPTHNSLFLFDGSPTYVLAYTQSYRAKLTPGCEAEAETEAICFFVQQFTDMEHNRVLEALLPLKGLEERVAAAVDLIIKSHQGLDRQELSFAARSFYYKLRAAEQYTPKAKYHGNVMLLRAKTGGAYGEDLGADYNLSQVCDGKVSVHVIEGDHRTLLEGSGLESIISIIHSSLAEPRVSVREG
FAD-linked sulfhydryl oxidase ALR, sequence (P55789 whole entry): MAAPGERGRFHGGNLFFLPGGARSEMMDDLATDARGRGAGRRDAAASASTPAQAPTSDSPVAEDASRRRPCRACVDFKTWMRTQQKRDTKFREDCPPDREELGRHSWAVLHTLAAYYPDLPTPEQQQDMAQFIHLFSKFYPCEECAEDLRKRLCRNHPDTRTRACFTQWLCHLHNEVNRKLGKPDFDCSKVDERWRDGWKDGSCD

## COc1ccc(NC2CCCN(C(=O)CCc3cn[nH]c3)C2)cc1 (stereo not given)
[1]
  AC50: 2.19 µM (active)
[2]
  IC50: 108 µM (active)

## COc1ccc(CNCc2cccc(OC)c2OC)cc1Br
[2]
  IC50: 149 µM (active)

## Cc1ccc(-n2ncc3c(N4CCN(c5ccc(F)cc5)CC4)ncnc32)c(C)c1
[3]
  AC50: 3.24 µM (active)
[4]
  AC50: 2.94 µM (active)
[5]
  AC50: 5.66 µM (active)

## O=C(NCCOc1ccccc1)c1cc(C(=O)NCCOc2ccccc2)cc([N+](=O)[O-])c1
[6]
  EC50: 1.28 µM (active)
[7]
  EC50: > 60 µM (not active)
Fatty acid synthase [8]
  IC50: 5.6 µM (active)
Fatty acid synthase [9]
  IC50: 2.75 µM (active)

## Cc1ccc(C(CC(=O)O)C2CCOC(C)(C)C2)cc1 (stereo not given)
Cells [10]
  EC50: > 350 µM (not active)
Cells [11]
  EC50: > 350 µM (not active)

## O=S(=O)(c1ccc(C(F)(F)F)cc1)N1CCC(c2nc(O)c3nnn(Cc4ccc(F)cc4)c3n2)CC1
Cells [10]
  EC50: > 350 µM (not active)
Cells [11]
  EC50: > 350 µM (not active)

## COc1ccc(-n2c(SCc3ccc([N+](=O)[O-])cc3)nnc2-c2ccccc2)cc1
Fatty acid synthase [8]
  IC50: 5.24 µM (active)
Fatty acid synthase [9]
  IC50: 3.44 µM (active)

## Cc1ccc(NC(=O)Cn2c(=O)c(C)nc3ccccc32)cc1
[12]
  EC50: > 300 µM (not active)
[13]
  EC50: > 300 µM (not active)

## O=C(CCC1CCCC1)N1CCN(C2CCCC2)CC1
[2]
  IC50: 209 µM (active)

## CN1CCN(S(=O)(=O)c2ccc(Sc3nnnn3-c3ccccc3)c([N+](=O)[O-])c2)CC1
[3]
  AC50: 3.9 µM (active)
[4]
  AC50: > 70 µM (inactive)
[5]
  AC50: 7.28 µM (active)

## CN1CCCCC/C1=N\c1ccccc1C#N
[2]
  IC50: 113 µM (active)

## COC(=O)C1=C(c2ccc(-c3ccccc3)c(F)c2)C[C@@H]2CC[C@H]1N2C(=O)NCC1CC1
[3]
  AC50: 4.32 µM (active)
[4]
  AC50: > 70 µM (inactive)
[5]
  AC50: 30.6 µM (active)

## CC/N=C1\S/C(=C\c2ccc(O)c(OCC)c2)C(=O)N1CC
[2]
  IC50: 37.9 µM (active)

## O=C(O)c1cc(NN=Nc2ccc(Br)cc2)cc([N+](=O)[O-])c1
[14]
  IC50: 12.6 µM (not active)
Fatty acid synthase [8]
  IC50: 5.49 µM (active)
Fatty acid synthase [9]
  IC50: 6.81 µM (active)
